Experimental data from patent US20230390319A1, “INTERFERON GENE STIMULATOR COMPOSITION COMPRISING INDOLIZINE DERIVATIVE AS ACTIVE INGREDIENT” (AJOU UNIVERSITY INDUSTRY-ACADEMIC COOPERATION FOUNDATION, priority 2020, published 2023).

Assays:
4T1 tumor cells = assay: In vivo anticancer activity, 4T1 tumor in BALB/c mice; conditions: Compound 42 20 mg/kg intravenous once daily + cGAMP 2 μg intratumoral every 4 days, compared to cGAMP alone, FIG. 7
Description: Eight-week-old female BALB/c mice (DBL) were used for experiments and inoculated subcutaneously with 0.5×10^6 4T1 tumor cells using PBS as the vehicle on the right flank. Following tumor implantation, mice were randomized into treatment groups, each consisting of N=4 (vehicle N=1). On day 5 after tumor cell injection, when the tumor volume reached about 100 mm^3, Compound 42 or vehicle was administrated by intravenous injection (20 mg/kg) or vehicle (5% DMSO, 5% Tween 80 in PBS). 2′3′-cGAMP (InvivoGen) was injected by intratumoral injection (2 μg in PBS). Compound 42 was injected once daily, and cGAMP was injected once every 4 days. Tumor and body weight measurements were performed using digital calipers and a weigh scale, respectively. Tumor volume was estimated using the following Equation 1:
Tumor volume=(length×width^2)/2 [Equation 1]
Mice were euthanized when the tumor volume reached about 2,000 mm^3.

STING = assay: Activity comparison with STING pathway-activating therapeutic agent MV658; format: cell-based; conditions: compared with ENPP inhibitor MV658, FIG. 6
[1] = system: IFNB, CXCL10, IFIT3, ISG15, IRF7 and OAS1; assay: Gene expression analysis by real-time quantitative PCR in THP-1 cells; format: cell-based, Human; conditions: with cGAMP (1 μg/ml), 6 hours, FIG. 4
Description: To confirm gene expression, THP-1 cells were placed in a 24-well plate (SPL) and treated with the compound of the present invention and cGAMP (1 μg/ml) for 6 hours. After culturing, RNA was extracted from the cells using NucleoSpin RNA Plus (MN). mRNA expression levels of IFNB, CXCL10, IFIT3, ISG15, IRF7 and OAS1 were measured by real-time qPCR (CFX96 Real-Time PCR Detection System, Bio-Rad) using IQ SYBR Green Supermix (Bio-Rad). GAPDH was used as a housekeeping gene to normalize cytokine mRNA levels.

human IFN-β and IP-10 = assay: ELISA of cytokine levels in THP-1 cell supernatants; format: cell-based; conditions: FIG. 3
Description: Cytokine levels were determined by ELISA analysis. THP-1 cells were placed in a 96-well U bottom plate and tested after 24 hours of treatment with each compound and cGAMP (1 μg/ml). After culturing, cell supernatants were collected and human IFN-β and IP-10 levels were determined by ELISA analysis.

## CC(=O)c1ccc(-c2cc(C(=O)c3ccc(C(F)(F)F)cc3)n3ccccc23)cc1 [Compound 42]
4T1 tumor cells
  tumor volume: effectively reduced the tumor volume
STING
  degree of STING-dependent immune response activation: better activity
[1]
  cGAMP-induced expression of interferon-stimulated genes (IFN-beta, IP-10, ISG15, IRF7, IFIT3, OAS1): significantly increased
Human IFN-β and IP-10; co-treatment with cGAMP compared to cGAMP alone, concentration-dependent
  cytokine secretion (IFN-β, IP-10): increased cytokine secretion very effectively
Human IFN-β and IP-10; treatment with Compound 42 alone
  immune response, compound alone: induced no immune response
